21 molecules from patent US12371428B2 (Exelixis, Inc., priority 2019, dated 2025) can be followed below.

Structures are written as SMILES. Like-named read-outs stand apart in the source and are kept apart here.

The target in assay [1] is Human Mer (residues R557-E882 with H628Q and R794A) (Homo sapiens, UniProt Q12866). Put plainly: Human Mer kinase assay, 33P-phosphoryl transfer radiometric (Example C-1, KinaseProfiler). The class given is biochemical. The protocol: Kinase activity and compound inhibition were investigated using the ^33P-Phosphoryl transfer radiometric kinase assay, performed using the KinaseProfiler™ service of Eurofins Pharma Discovery Services UK Limited. Dose-response experiments were performed using nine compound concentrations in a 96-well microtiter plate. For each assay, all compounds were prepared to a 50× final assay concentration (50 μM) in 100% DMSO, then diluted in a half-log series, with the final top concentration at 1 μM. This working stock of the compound was added to the assay well as the first component in the reaction, followed by the remaining components as detailed in the following assay protocols below. The positive control wells (100% kinase activity) contain all components of the reaction including 2% DMSO (control for solvent effects), except the compound of interest. Blank wells contain all components of the reaction, with the reference inhibitor, staurosporine. This reference compound was used to abolish kinase activity and generated the 0% kinase activity base-line. IC50 values were calculated by nonlinear regression analysis using the sigmoidal dose-response (variable slope) curve fit on XLFit version 5.3 (ID Business Solutions).
Example C-1: Human Mer (residues R557-E882 with H628Q and R794A, 0.7 nM) was incubated with 8 mM MOPS pH 7.0, 0.2 mM EDTA, 30 mM NaCl, 250 μM […] (SEQ ID NO:2), 10 mM magnesium acetate, and 10 μM [γ-^33P-ATP]. The reaction was initiated by the addition of the Mg/ATP mix. After incubation for 40 minutes at room temperature, the reaction was stopped by the addition of phosphoric acid to a concentration of 0.5%. A reaction aliquot of 10 μL was then spotted onto a P30 filtermat and washed four times for 4 minutes in 0.425% phosphoric acid and once in methanol prior to drying and scintillation counting. Incorporated ^33P was measured using the Wallac Microbeta scintillation counter (Perkin Elmer).

Assay [2] deals with Human AXL (residues 464-885) (Homo sapiens (Human), UniProt P30530). Put plainly: Human AXL kinase assay, HTRF KinEase (Example A-2). It counts as biochemical. The protocol:
Kinase activity and compound inhibition were also investigated using the HTRF® KinEase assay (Cisbio Cat #62TKOPEB) per manufacturer's instructions. In short, compounds were delivered in 300 nL volumes at 10 different concentrations in DMSO (3% final) to empty 384-well assay plates (Corning cat #3824). A mixture of enzyme, […] biotynlated peptide substrate, and buffer in 10 μL volume was added. The assay was started upon the addition of ATP (at Km). The 10 μL reaction was incubated at room temperature. The reaction was stopped upon the addition of detection buffer containing streptavidin-XL665 ([…]) and TK antibody-Eu3+(5 L).
Kinase activity normalized to DMSO (100% activity) and reference compound at […] and (0% activity) was calculated using the fluorescence ratio […]. IC50 values were calculated by nonlinear regression analysis using a 4-parameter logistic curve fit in ActivityBase XE (IDBS).
The mixture was added to the pre-plated compounds. […] The reaction was incubated at room temperature for 50 min and stopped upon the addition of SA-XL665 and TK-antibody both diluted in EDTA-containing kinase detection buffer (Cisbio). The kinase activity was calculated as stated above and the IC50 values were reported.

In assay [3] the target is AXL (phospho-AXL, Gas6-stimulated A-172 glioblastoma cells) (Homo sapiens (Human), UniProt P30530). Put plainly: AXL autophosphorylation ELISA in A-172 cells (Example E). The class given is cell-based. To be noted: cellular activity; AXL autophosphorylation ELISA in A-172 cells; read-out: Axl IC50. The gist of the method:
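Phospho-AXL in lysates was quantified by ELISA, normalised to DMSO (100%) and reference inhibitor (0%) controls. IC50 by 4-parameter logistic fit.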

Where [4] appears, read: protocol of Example C-1 (compounds 21-27, 41-47, 99, 104).
The mark [5] stands for this setting: protocol of Example A-2 (other compounds).

Sequence of AXL (phospho-AXL, Gas6-stimulated A-172 glioblastoma cells) (P30530 26-894): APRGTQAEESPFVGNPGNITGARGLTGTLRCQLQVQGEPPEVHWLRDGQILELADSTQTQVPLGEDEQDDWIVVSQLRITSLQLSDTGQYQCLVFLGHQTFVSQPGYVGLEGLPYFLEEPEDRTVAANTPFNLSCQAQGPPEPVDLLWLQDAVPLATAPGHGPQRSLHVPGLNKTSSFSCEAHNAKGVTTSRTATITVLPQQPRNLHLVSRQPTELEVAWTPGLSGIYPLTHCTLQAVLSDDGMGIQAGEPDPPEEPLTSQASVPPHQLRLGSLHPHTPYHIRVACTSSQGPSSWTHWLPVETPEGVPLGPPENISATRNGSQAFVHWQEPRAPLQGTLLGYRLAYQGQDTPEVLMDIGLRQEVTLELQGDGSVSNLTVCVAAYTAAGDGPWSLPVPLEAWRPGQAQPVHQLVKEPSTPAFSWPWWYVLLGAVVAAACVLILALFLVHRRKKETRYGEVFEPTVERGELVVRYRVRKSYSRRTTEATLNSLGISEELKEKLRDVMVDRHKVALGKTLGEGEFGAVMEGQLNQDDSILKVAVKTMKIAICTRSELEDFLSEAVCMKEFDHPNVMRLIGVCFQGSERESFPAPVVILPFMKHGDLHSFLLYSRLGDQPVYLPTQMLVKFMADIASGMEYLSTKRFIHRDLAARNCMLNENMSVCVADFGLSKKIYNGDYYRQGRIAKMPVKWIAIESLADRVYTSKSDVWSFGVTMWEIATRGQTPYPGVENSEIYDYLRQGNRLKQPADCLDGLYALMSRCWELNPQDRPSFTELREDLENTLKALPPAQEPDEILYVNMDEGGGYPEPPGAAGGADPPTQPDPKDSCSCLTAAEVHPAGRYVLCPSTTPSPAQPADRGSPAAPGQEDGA
Sequence of Human AXL (residues 464-885) (P30530 473-894): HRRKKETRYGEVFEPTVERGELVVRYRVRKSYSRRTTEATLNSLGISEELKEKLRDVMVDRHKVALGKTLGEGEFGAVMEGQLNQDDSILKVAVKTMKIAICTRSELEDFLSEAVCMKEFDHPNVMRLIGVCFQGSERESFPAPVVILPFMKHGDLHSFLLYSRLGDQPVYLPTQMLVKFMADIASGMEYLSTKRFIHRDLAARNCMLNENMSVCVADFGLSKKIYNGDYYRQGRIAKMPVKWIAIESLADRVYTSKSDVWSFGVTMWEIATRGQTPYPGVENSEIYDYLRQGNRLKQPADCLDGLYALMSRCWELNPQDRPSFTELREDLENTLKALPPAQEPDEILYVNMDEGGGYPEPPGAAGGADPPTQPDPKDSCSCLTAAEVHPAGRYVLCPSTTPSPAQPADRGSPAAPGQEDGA
Sequence of Human Mer (residues R557-E882 with H628Q and R794A) (Q12866 21-999 limits assumed, stated change not applied): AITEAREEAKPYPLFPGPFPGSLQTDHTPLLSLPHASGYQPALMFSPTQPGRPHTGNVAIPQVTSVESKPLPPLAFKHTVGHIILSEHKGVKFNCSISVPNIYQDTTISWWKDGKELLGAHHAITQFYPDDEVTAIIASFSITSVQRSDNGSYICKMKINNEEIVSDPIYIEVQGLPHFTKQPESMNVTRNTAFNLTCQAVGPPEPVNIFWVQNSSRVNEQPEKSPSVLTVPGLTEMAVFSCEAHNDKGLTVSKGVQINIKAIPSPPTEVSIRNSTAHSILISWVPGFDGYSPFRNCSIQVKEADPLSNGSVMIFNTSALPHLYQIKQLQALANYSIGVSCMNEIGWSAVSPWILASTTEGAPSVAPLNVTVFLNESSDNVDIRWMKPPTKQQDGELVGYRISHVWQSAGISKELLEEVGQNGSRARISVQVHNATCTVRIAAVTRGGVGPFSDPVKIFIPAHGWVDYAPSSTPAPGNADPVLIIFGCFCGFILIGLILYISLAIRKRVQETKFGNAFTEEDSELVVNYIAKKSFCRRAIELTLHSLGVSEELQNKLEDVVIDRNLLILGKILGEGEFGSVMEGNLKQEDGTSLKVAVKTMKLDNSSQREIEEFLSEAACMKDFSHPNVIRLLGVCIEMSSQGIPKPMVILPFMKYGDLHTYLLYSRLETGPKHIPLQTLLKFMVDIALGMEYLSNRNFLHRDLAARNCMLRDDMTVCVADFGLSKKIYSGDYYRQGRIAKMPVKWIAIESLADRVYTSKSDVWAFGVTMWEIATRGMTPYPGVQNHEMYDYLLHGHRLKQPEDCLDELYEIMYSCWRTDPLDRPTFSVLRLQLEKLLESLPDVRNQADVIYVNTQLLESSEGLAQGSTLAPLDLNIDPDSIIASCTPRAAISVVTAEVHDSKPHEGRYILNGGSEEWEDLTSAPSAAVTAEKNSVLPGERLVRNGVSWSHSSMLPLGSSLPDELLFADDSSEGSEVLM

Regarding `COc1cc2nccc(Oc3ccc(NC(=O)c4cn(C5CCCC5)c(C)c(-c5ccc(F)c(Cl)c5)c4=O)cc3F)c2nc1OC` [Compound 27, 5-(3-Chloro-4-fluorophenyl)-1-cyclopentyl-N-[4-[(6,7-dimethoxy-1,5-naphthyridin-4-yl)oxy]-3-fluorophenyl]-6-methyl-4-oxopyridine-3-carboxamide], in assay [1] (setting [4]), the IC50 is < 100 nM.

On to `COCCOc1ccc2nccc(Oc3ccc(NC(=O)c4cnc(C)c(-c5ccc(F)cc5)c4O)cc3F)c2n1` [Compound 348, N-[3-fluoro-4-[[6-(2-methoxyethoxy)-1,5-naphthyridin-4-yl]oxy]phenyl]-5-(4-fluorophenyl)-4-hydroxy-6-methylpyridine-3-carboxamide], for which the IC50 in assay [2] (setting [5]) and in assay [3] was < 100 nM each time.

Regarding `COc1cc2nccc(Oc3ccc(NC(=O)c4cn(C5CCCC5)c(C)c(-c5ccc(F)cc5)c4=O)cc3F)c2nc1OC` [Compound 26], the IC50 in assay [1] (setting [4]) was < 100 nM.

As for `COc1cc2nccc(Oc3ccc(NC(=O)c4cn(C(C)C)c(C)c(-c5ccc(F)cc5)c4=O)cc3F)c2cc1OC` [Compound 22, N-[4-(6,7-Dimethoxyquinolin-4-yl)oxy-3-fluorophenyl]-5-(4-fluorophenyl)-6-methyl-4-oxo-1-propan-2-ylpyridine-3-carboxamide], the IC50 in assay [1] (setting [4]) is < 100 nM.

Take `COc1cnc2c(Oc3ccc(NC(=O)c4cn(C)c(C)c(-c5ccc(F)cc5C)c4=O)cc3)ccnc2c1` [Compound 187, 5-(4-Fluoro-2-methylphenyl)-N-[4-[(7-methoxy-1,5-naphthyridin-4-yl)oxy]phenyl]-1,6-dimethyl-4-oxopyridine-3-carboxamide]: the IC50 in assay [2] (setting [5]) and in assay [3] was < 100 nM in each case.

Take `COc1cc2nccc(Oc3ccc(NC(=O)c4cn(C(C)C)cc(-c5ccc(F)cc5)c4=O)cc3F)c2nc1OC` [Compound 44, N-[4-[(6,7-Dimethoxy-1,5-naphthyridin-4-yl)oxy]-3-fluorophenyl]-5-(4-fluorophenyl)-4-oxo-1-propan-2-ylpyridine-3-carboxamide]: in assay [1] (setting [4]), the IC50 was < 100 nM.

Take `COc1cc2nccc(Oc3ccc(NC(=O)c4cnc(SC(C)C)n(-c5ccc(F)cc5)c4=O)cc3)c2cc1OC` [Compound 539, N-[4-(6,7-dimethoxyquinolin-4-yl)oxyphenyl]-1-(4-fluorophenyl)-6-oxo-2-propan-2-ylsulfanylpyrimidine-5-carboxamide]: the IC50 in assay [3] is < 100 nM.

As to `COc1cc2nccc(Oc3ccc(NC(=O)c4cn(CC(F)(F)F)c(C)c(-c5ccc(F)cc5)c4=O)cc3)c2cc1OC` [Compound 260, N-[4-(6,7-Dimethoxyquinolin-4-yl)oxyphenyl]-5-(4-fluorophenyl)-6-methyl-4-oxo-1-(2,2,2-trifluoroethyl)pyridine-3-carboxamide], the IC50 in assay [2] (setting [5]) and in assay [3] was < 100 nM in each case.

In the case of `CNc1ncc(C(=O)Nc2ccc(Oc3ccnc4cc(OC)c(OC)nc34)c(F)c2)c(=O)n1-c1ccc(F)cc1` [Compound 99, N-[4-[(6,7-Dimethoxy-1,5-naphthyridin-4-yl)oxy]-3-fluorophenyl]-1-(4-fluorophenyl)-2-(methylamino)-6-oxopyrimidine-5-carboxamide], the IC50 in assay [1] (setting [4]) is < 100 nM.

In the case of `C=C(C)c1cnc2c(Oc3ccc(NC(=O)c4c(C)cc(C)n(-c5ccc(F)cc5)c4=O)cc3F)ccnc2c1` [Compound 457, 1-(4-fluorophenyl)-N-[3-fluoro-4-[(7-prop-1-en-2-yl-1,5-naphthyridin-4-yl)oxy]phenyl]-4,6-dimethyl-2-oxopyridine-3-carboxamide], the IC50 in assay [2] (protocol of Example A-2) and in assay [3] was < 100 nM throughout.

For `COc1cc2nccc(Oc3ccc(NC(=O)c4cncc(-c5ccc(F)cc5)c4O)cc3F)c2nc1OC` [Compound 42, N-[4-[(6,7-Dimethoxy-1,5-naphthyridin-4-yl)oxy]-3-fluorophenyl]-5-(4-fluorophenyl)-4-hydroxypyridine-3-carboxamide], in assay [1] (setting [4]), the IC50 was < 100 nM.

Turning to `COc1cc2nccc(Oc3ccc(NC(=O)c4ccc(C)n(-c5ccc(F)cc5)c4=O)cc3F)c2nc1OC` [Compound 254, N-[4-[(6,7-Dimethoxy-1,5-naphthyridin-4-yl)oxy]-3-fluorophenyl]-1-(4-fluorophenyl)-6-methyl-2-oxopyridine-3-carboxamide], the IC50 in assay [2] (setting [5]) and in assay [3] was < 100 nM in each case.

For `COc1cc2nccc(Oc3ccc(NC(=O)c4cn(C(C)C)c(C)c(-c5ccc(F)cc5)c4=O)cc3F)c2nc1OC` [Compound 21, N-[4-[(6,7-Dimethoxy-1,5-naphthyridin-4-yl)oxy]-3-fluorophenyl]-5-(4-fluorophenyl)-6-methyl-4-oxo-1-propan-2-ylpyridine-3-carboxamide], the IC50 in assay [1] (setting [4]) was < 100 nM.

`COc1cc2nccc(Oc3ccc(NC(=O)c4cn(C5CC5)cc(-c5ccc(F)cc5)c4=O)cc3F)c2nc1OC` [Compound 41, 1-Cyclopropyl-N-[4-[(6,7-dimethoxy-1,5-naphthyridin-4-yl)oxy]-3-fluorophenyl]-5-(4-fluorophenyl)-4-oxopyridine-3-carboxamide]: in assay [1] (setting [4]), the half-maximal inhibitory concentration (IC50) is < 100 nM.

Take `COc1cc2nccc(Oc3ccc(NC(=O)c4cn(C5CCCC5)cc(-c5ccc(F)cc5)c4=O)cc3F)c2nc1OC` [Compound 46, 1-Cyclopentyl-N-[4-[(6,7-dimethoxy-1,5-naphthyridin-4-yl)oxy]-3-fluorophenyl]-5-(4-fluorophenyl)-4-oxopyridine-3-carboxamide]: the IC50 in assay [1] (setting [4]) is < 100 nM.

On to `COc1cc2nccc(Oc3ccc(NC(=O)c4cn(C5COC5)cc(-c5ccc(F)cc5)c4=O)cc3F)c2nc1OC` [Compound 47, N-[4-[(6,7-Dimethoxy-1,5-naphthyridin-4-yl)oxy]-3-fluorophenyl]-5-(4-fluorophenyl)-1-(oxetan-3-yl)-4-oxopyridine-3-carboxamide], for which the IC50 in assay [1] (setting [4]) is < 100 nM.

Regarding `COc1cc2nccc(Oc3ccc(NC(=O)c4cn(C)cc(-c5ccc(F)cc5)c4=O)cc3F)c2nc1OC` [Compound 45, N-[4-[(6,7-Dimethoxy-1,5-naphthyridin-4-yl)oxy]-3-fluorophenyl]-5-(4-fluorophenyl)-1-methyl-4-oxopyridine-3-carboxamide], in assay [1] (setting [4]), the 50% inhibitory concentration (IC50) was < 100 nM.

Turning to `COc1cc2nccc(Oc3ccc(NC(=O)c4cn(C(C)C)c(C)c(-c5ccc(F)c(Cl)c5)c4=O)cc3F)c2nc1OC` [Compound 24, 5-(3-Chloro-4-fluorophenyl)-N-[4-[(6,7-dimethoxy-1,5-naphthyridin-4-yl)oxy]-3-fluorophenyl]-6-methyl-4-oxo-1-propan-2-ylpyridine-3-carboxamide], the IC50 in assay [1] (setting [4]) is < 100 nM.

For `COc1cc2nccc(Oc3ccc(NC(=O)c4cn(C(C)C)cc(-c5ccc(F)cc5)c4=O)cc3F)c2cc1OC` [Compound 43, N-[4-(6,7-Dimethoxyquinolin-4-yl)oxy-3-fluorophenyl]-5-(4-fluorophenyl)-4-oxo-1-propan-2-ylpyridine-3-carboxamide], the concentration for half-maximal inhibition (IC50) in assay [1] (setting [4]) was < 100 nM.

`COc1cc2nccc(Oc3ccc(NC(=O)c4cn(C(C)C)c(C)c(-c5ccc(Cl)c(Cl)c5)c4=O)cc3F)c2cc1OC` [Compound 23, 5-(3,4-Dichlorophenyl)-N-[4-(6,7-dimethoxyquinolin-4-yl)oxy-3-fluorophenyl]-6-methyl-4-oxo-1-propan-2-ylpyridine-3-carboxamide] returned an IC50 in assay [1] of 100 to 300 nM.

With `COc1cc2nccc(Oc3ccc(NC(=O)c4cn(C(C)C)c(C)c(-c5ccc(Cl)c(Cl)c5)c4=O)cc3F)c2nc1OC` [Compound 25, 5-(3,4-Dichlorophenyl)-N-[4-[(6,7-dimethoxy-1,5-naphthyridin-4-yl)oxy]-3-fluorophenyl]-6-methyl-4-oxo-1-propan-2-ylpyridine-3-carboxamide], in assay [1] (setting [4]), the half-maximal inhibitory concentration (IC50) is < 100 nM.

By IC50 is commonly meant the point on the concentration scale where inhibition reaches its midpoint.
